Our source for the inhibition values is patent EP3212201B1, “NUCLEOSIDE KINASE INHIBITORS” (BCI Pharma, priority 2014, dated 2016).

What all share (assay): FRET-based coupled-enzyme protein kinase inhibition assay
Common to all, as to format: biochemical
Details in all cases: compound at 10 µM, 1% DMSO

The target of experiment [1] is MAPK14 (p38 alpha) (Homo sapiens, UniProt Q16539). The method, boiled down:
(§1)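 FRET peptide (coumarin donor, fluorescein acceptor) was phosphorylated by each kinase in 50 mM HEPES pH 7.5, 10 mM MgCl2, 1 mM EDTA, 0.01% BRIJ-35 for 60 min at room temperature. ATP was at apparent Km, compounds in 1% DMSO. Protease development reagent then cleaved non-phosphorylated peptide over 60 min.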

Experiment [2] has as its target MAP4K4 (HGK) (Homo sapiens, UniProt O95819). The method, boiled down:
as §1

The target in experiment [3] is EGFR (ErbB1) (Homo sapiens, UniProt P00533). The gist of the method: as §1
Experiment [4] concerns the target AMPK A1/B1/G1 (Homo sapiens, UniProt Q13131). The method, boiled down: as §1
Experiment [5] addresses FRAP1 (mTOR) (Homo sapiens, UniProt P42345). The method, boiled down: as §1
Experiment [6] addresses BTK (Homo sapiens, UniProt Q06187). The gist of the method:
as §1

Experiment [7] addresses CSNK1G2 (CK1 gamma 2) (Homo sapiens, UniProt P78368). The gist of the method:
as §1

The target in experiment [8] is ERBB2 (HER2) (Homo sapiens, UniProt P04626). The gist of the method:
as §1

Experiment [9] concerns the target CDK1/cyclin B (Homo sapiens, UniProt P06493). The method, boiled down:
as §1

Experiment [10] deals with INSR (Homo sapiens, UniProt P06213). The gist of the method: as §1
Experiment [11] addresses EPHA2 (Homo sapiens, UniProt P29317). The method, boiled down: as §1
For experiment [12], the target named is ROCK1 (Homo sapiens, UniProt Q13464). The method, boiled down:
as §1

Experiment [13] has as its target T1, AURKA (Aurora A) (Homo sapiens, UniProt O14965).
T1 sequence (O14965 1-403): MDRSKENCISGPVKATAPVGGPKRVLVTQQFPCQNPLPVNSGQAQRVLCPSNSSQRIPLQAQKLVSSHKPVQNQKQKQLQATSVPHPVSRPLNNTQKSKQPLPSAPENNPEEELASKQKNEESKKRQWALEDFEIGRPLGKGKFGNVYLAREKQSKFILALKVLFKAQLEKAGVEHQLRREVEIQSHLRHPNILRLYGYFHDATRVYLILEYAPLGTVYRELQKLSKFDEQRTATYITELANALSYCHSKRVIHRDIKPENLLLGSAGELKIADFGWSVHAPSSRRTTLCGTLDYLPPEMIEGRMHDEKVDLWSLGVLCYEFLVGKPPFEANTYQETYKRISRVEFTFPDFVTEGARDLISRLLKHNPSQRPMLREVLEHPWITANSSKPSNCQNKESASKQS
The gist of the method: as §1

The target of experiment [14] is MAPK8 (JNK1) (Homo sapiens, UniProt P45983). The gist of the method: as §1
Experiment [15] has as its target SRC (Homo sapiens, UniProt P12931). The method, boiled down: as §1

Chain of INSR (P06213 28-1382, species assumed): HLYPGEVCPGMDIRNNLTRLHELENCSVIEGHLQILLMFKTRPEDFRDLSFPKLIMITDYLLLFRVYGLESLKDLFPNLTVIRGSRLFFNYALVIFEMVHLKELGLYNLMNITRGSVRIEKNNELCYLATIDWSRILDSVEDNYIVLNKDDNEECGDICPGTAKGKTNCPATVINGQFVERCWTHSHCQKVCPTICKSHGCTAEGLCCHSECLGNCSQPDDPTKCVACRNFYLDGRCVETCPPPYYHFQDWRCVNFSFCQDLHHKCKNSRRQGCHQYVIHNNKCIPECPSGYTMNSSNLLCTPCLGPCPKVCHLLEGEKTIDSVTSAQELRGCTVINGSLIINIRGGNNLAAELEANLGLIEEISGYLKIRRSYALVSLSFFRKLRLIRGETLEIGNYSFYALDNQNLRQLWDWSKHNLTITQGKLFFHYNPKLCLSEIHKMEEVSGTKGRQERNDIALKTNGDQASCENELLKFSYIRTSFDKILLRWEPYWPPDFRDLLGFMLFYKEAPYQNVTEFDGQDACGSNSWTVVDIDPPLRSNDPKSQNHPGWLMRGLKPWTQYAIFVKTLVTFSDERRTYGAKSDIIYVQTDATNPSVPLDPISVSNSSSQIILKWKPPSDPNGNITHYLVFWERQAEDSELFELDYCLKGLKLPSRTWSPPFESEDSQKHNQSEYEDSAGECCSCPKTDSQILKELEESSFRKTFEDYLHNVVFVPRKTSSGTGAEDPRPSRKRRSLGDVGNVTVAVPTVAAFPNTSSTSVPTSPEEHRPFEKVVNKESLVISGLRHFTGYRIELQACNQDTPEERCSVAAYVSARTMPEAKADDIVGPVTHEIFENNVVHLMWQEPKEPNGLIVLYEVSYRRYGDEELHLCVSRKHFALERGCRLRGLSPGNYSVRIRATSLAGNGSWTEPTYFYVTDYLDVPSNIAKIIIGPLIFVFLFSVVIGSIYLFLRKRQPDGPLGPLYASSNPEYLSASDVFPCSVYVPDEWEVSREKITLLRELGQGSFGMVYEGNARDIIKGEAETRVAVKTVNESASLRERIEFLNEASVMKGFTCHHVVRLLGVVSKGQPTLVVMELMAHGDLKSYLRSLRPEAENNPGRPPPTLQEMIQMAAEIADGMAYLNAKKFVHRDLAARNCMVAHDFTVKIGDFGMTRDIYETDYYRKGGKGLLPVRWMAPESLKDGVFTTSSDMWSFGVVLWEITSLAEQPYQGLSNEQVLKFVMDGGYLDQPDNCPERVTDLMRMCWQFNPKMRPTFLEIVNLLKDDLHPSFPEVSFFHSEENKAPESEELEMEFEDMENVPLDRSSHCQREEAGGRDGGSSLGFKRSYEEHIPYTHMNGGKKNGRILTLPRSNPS
Chain of MAP4K4 (HGK) (O95819 whole entry, species assumed): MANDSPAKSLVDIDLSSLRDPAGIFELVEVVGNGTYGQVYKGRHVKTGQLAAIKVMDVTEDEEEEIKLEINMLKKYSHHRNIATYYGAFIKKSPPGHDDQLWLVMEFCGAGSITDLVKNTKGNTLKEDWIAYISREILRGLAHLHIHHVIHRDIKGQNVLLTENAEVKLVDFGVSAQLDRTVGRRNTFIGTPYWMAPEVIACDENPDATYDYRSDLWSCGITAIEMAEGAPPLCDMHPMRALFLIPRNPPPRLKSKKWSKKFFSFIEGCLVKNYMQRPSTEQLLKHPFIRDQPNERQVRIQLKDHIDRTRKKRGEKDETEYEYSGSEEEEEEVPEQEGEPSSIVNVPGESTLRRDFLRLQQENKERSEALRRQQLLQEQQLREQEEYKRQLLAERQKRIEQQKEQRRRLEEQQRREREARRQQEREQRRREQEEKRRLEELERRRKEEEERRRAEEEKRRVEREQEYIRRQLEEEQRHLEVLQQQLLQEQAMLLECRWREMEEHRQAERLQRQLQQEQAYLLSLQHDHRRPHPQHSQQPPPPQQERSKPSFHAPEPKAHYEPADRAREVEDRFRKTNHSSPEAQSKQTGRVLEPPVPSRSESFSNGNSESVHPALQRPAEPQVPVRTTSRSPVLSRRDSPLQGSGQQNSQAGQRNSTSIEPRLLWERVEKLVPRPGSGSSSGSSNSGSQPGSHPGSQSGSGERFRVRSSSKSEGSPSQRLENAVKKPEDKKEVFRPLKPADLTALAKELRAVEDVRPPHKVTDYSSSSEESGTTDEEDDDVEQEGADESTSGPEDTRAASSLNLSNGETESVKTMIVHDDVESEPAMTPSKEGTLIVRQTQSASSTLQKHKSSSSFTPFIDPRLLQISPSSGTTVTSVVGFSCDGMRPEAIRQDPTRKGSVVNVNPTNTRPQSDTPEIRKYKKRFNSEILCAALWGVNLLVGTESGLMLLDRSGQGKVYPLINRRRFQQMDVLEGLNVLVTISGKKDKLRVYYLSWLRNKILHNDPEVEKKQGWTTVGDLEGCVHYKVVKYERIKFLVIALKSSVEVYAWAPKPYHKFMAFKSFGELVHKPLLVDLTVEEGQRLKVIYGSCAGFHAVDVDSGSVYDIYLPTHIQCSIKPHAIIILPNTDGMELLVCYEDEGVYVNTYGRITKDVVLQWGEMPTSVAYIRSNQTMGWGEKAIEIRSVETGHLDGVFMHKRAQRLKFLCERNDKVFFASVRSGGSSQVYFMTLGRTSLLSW
Chain of CDK1/cyclin B (P06493 whole entry, species assumed): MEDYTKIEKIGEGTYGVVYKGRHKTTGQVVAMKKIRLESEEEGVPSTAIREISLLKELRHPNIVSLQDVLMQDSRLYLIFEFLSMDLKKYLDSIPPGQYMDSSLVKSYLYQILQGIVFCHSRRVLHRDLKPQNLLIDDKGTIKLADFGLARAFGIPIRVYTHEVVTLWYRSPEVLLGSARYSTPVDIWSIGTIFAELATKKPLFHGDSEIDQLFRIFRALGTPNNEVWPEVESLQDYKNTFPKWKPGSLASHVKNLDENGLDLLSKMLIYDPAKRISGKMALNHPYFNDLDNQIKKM
Chain of CDK1/cyclin B (P14635 whole entry partner, species assumed): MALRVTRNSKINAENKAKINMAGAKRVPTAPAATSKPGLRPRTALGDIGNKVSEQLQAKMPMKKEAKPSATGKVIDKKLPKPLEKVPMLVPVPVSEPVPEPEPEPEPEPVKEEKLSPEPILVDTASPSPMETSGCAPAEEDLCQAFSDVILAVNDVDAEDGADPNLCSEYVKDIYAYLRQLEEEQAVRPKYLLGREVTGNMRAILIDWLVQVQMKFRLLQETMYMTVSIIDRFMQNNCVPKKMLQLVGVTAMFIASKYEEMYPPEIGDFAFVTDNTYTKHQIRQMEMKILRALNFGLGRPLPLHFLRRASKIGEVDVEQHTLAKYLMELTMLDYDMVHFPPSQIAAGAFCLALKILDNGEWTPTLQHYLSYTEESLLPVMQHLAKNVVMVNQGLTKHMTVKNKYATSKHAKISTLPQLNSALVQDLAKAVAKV
Chain of SRC (P12931 whole entry, species assumed): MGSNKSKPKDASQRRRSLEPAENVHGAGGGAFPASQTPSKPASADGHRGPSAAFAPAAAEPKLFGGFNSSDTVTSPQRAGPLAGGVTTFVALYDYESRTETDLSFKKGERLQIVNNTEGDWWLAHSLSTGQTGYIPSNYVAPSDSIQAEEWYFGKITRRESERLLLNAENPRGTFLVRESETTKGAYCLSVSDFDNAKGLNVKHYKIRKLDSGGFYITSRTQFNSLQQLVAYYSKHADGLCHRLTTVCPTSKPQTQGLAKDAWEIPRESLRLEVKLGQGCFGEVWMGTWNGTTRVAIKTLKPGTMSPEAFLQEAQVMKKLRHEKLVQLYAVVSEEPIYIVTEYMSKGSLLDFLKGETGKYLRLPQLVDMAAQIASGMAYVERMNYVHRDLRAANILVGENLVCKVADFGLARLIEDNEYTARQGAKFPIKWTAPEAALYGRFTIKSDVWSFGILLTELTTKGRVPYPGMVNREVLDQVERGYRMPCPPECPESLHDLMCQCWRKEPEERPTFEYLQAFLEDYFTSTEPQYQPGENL
Chain of CSNK1G2 (CK1 gamma 2) (P78368 whole entry, species assumed): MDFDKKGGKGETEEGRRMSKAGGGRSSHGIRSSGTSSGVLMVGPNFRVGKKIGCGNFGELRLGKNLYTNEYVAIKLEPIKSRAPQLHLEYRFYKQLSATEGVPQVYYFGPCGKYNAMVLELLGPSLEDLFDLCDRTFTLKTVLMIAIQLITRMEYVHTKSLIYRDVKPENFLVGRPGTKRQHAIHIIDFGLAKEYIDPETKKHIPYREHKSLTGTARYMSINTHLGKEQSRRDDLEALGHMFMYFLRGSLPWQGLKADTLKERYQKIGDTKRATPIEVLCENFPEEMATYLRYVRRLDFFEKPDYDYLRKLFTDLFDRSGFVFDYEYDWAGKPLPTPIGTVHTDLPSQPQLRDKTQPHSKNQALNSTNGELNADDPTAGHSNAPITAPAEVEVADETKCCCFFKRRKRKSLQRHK
Chain of BTK (Q06187 whole entry, species assumed): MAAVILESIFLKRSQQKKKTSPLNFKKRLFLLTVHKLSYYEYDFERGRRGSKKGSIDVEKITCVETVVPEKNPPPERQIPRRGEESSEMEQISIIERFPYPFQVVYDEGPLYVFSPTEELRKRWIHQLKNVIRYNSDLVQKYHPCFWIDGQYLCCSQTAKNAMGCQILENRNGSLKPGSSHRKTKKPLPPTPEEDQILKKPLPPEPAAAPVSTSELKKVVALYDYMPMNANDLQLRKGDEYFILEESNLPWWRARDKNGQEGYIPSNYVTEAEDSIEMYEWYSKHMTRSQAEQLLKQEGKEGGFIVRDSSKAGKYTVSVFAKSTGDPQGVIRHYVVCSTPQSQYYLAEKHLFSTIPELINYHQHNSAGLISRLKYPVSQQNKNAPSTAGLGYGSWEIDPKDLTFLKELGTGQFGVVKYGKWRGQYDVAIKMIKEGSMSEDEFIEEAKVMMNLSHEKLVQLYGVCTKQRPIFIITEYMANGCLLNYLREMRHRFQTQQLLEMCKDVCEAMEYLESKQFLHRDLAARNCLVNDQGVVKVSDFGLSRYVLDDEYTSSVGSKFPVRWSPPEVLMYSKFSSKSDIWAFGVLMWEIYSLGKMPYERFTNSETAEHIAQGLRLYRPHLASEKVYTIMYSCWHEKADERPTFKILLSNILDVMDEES

The term inhibition denotes the relative decrease from the control value, in per cent. Take `Nc1ncnc2c1ncn2[C@@H]1O[C@H](COC(=O)N2CCC(Cc3ccc(F)cc3)C2)[C@@H](O)[C@H]1O` (stereo partly drawn) [Compound C66]: the inhibition at 10 µM in experiment [1] was 18%; in [2], 1%; in [3] it was 31%; in experiment [4] it was 14%; in experiment [5], -4%; in experiment [6], 11%. Besides, the inhibition at 10 µM in [7] was 10%; in experiment [8], 11%; in experiment [9] it was 11%; in experiment [10], -5%; in experiment [11], 9%; in experiment [12], -1%. Moreover, the inhibition at 10 µM in experiment [13] was determined as 4%; in experiment [14], 6%; in experiment [15] it was 38%.
`N#CCCN1CCN(C(=O)OC[C@H]2O[C@@H](n3cnc4c(N)ncnc43)[C@H](O)[C@@H]2O)CC1` [Compound C70]: the inhibition at 10 µM in [1] is 4%; in experiment [2], -5%; in experiment [3] it was -1%; in experiment [4], 8%; in experiment [5] it was -6%; in [6] it was 1%. The inhibition at 10 µM in [7] was 0%; in experiment [8], 0%; in experiment [9], 4%; in experiment [10], -2%; in [11], 4%; in experiment [12] it was -3%. In addition, the inhibition at 10 µM in experiment [13] was -1%; in [14] it was 8%; in experiment [15], 8%.
As to `CN(C)CCNC(=O)OC[C@H]1O[C@@H](n2cnc3c(N)ncnc32)[C@H](O)[C@@H]1O` [Compound C85], the inhibition at 10 µM in experiment [1] was 0%; in experiment [2], -8%; in experiment [3], 20%; in [4], 4%; in experiment [5] it was 2%; in experiment [6], 0%. The inhibition at 10 µM is 0% in experiment [7]; -13% in experiment [8]; 3% in experiment [9]; 3% in [10]; 4% in experiment [11]; -7% in experiment [12]. In addition, the inhibition at 10 µM in experiment [13] is -11%; in experiment [14], 4%; in [15], 17%.
Consider `Nc1ncnc2c1ncn2[C@@H]1O[C@H](COC(=O)N2CCN(C(=O)N3CCOCC3)CC2)[C@@H](O)[C@H]1O` [Compound C89], for which the inhibition at 10 µM in experiment [1] was -2%; in experiment [2], 9%; in experiment [3], 28%; in experiment [4], 2%; in experiment [5], -4%; in experiment [6], 4%. Further, the inhibition at 10 µM is 0% in experiment [7]; -7% in [8]; 1% in experiment [9]; 0% in experiment [10]; 6% in [11]; -15% in [12]. In addition, the values for the inhibition at 10 µM in [13], in [14] and in [15] were -7%, 5% and 8%, respectively.
As for `CS(=O)(=O)N1CC2(CCN(C(=O)OC[C@H]3O[C@@H](n4cnc5c(N)ncnc54)[C@H](O)[C@@H]3O)CC2)c2ccccc21` [Compound C98], the inhibition at 10 µM is 20% in experiment [1]; 68% in [2]; 5% in experiment [3]; 9% in [4]; 2% in experiment [5]; 16% in experiment [6]. The inhibition at 10 µM in [7] is 15%; in experiment [8] it was 5%; in experiment [9], 8%; in experiment [10], -2%; in experiment [11] it was 5%; in experiment [12] it was -8%. The results for the inhibition at 10 µM in experiment [13], in experiment [14] and in experiment [15] were 0%, 4% and 58%, respectively.
Take `Nc1ncnc2c1ncn2[C@@H]1O[C@H](COC(=O)N2CCS(=O)(=O)CC2)[C@@H](O)[C@H]1O` [Compound C100]: the inhibition at 10 µM in experiment [1] is -4%; in [2] it was -6%; in experiment [3] it was 8%; in experiment [4], 4%; in experiment [5] it was -2%; in experiment [6], -5%. For the same compound, the inhibition at 10 µM in experiment [7] is -1%; in experiment [8], 2%; in experiment [9] it was 5%; in [10], -2%; in [11], 4%; in experiment [12], -6%. In addition, the inhibition at 10 µM in [13] is -7%; in experiment [14] it was 7%; in experiment [15], 8%.
